Where two headings read alike, the source gives them in different places. Numbered stars: 1 amine (or outer) side, 2 acyl side, 3 side chain; on linkers, the order of the positions; unused ones are H or OH. Square brackets hold non-standard residues; d marks the D form. Side chains are listed from the residue outwards. * marks the point of attachment. C20 diacid = O=C(O)CCCCCCCCCCCCCCCCCCC(=O)*; C18 diacid = O=C(O)CCCCCCCCCCCCCCCCC(=O)*; C16 diacid = O=C(O)CCCCCCCCCCCCCCC(=O)*; γGlu = O=C(O)[C@H](CCC(=O)[*:2])N[*:1]; AEEA = NCCOCCOCC(=O)O; Aib = CC(C)(N)C(=O)O
What was measured:
Type in all cases: cell-based
[1] = target: T1, human GLP-1 receptor (hGLP-1R) (Homo sapiens, UniProt P43220); assay: GLP-1 receptor assay, method A (CRE-luciferase reporter, BHK cells)
T1 construct: expressed in transfected cells
Procedure: (§1) To assess how the activation of the receptors is potentially influenced by the presence of human serum albumin (HSA), the in vitro assays were performed in the absence of HSA and presence of 1% (w/v) HSA.
Cells at approximately 80-90% confluence were washed once in PBS (Gibco 14190-094) and loosened from the cell flasks with Versene (Gibco, 15040-033). […] Cells were aliquoted and stored at −180° C. until use.
(§2) The assay buffer consisted of DMEM without phenol red (Gibco, 11880-028) supplemented with 1× GlutaMAX (Gibco, 35050-038), 10 mM HEPES (Gibco, 15630-056), 1% (w/v) ovalbumin (Sigma, A5503) and 0.1% (v/v) Pluronic F-68 (Gibco, 24040-032) either with HSA or without HSA (Sigma, A9511).
Frozen stocks of hGLP-1R BHK CRE-Luc cells were thawed in a 37° C. water bath, washed once in PBS (Gibco 14190-094) and diluted to 1.5×10^6 (1.5E+6) cells/mL in assay buffer with or without 2% (w/v) HSA (Sigma, A9511). […] The assay plates were incubated for 3 hours at 37° C. in 5% CO2, left at room temperature for 5 minutes after which 100 μL steadylite Plus™ (PerkinElmer/Revvity, 6066759) was added to each well. Plates were sealed and incubated at room temperature with gentle shaking for 30 minutes while protected from light. Luminescence was detected on a luminescence plate reader e.g., a Synergy 2 (BioTek).

[2] = target: T2, human GIP receptor (hGIPR) (Homo sapiens, UniProt P48546); assay: GIP receptor assay, method A (CRE-luciferase reporter, BHK cells)
T2 construct: expressed in transfected cells
T2 sequence (P48546 22-466): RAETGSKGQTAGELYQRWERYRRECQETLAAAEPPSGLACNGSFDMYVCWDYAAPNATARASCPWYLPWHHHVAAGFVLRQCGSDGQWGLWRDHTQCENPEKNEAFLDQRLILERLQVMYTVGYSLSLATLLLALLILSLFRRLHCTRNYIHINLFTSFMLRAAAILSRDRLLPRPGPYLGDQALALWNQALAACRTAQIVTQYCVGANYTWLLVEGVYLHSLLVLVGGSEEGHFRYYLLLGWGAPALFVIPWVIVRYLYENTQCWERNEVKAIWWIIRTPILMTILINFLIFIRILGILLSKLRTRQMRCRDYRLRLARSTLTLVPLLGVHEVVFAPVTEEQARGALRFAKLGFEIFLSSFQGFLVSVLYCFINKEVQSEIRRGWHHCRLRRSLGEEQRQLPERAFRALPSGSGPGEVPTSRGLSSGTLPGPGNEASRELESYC
Procedure: To assess how the activation of the receptors is potentially influenced by the presence of human serum albumin (HSA), the in vitro assays were performed in the absence of HSA and presence of 1% (w/v) HSA. Unless stated otherwise the reference to the “GIP receptor assay as described in Example 4” throughout the specification shall refer to the described herein assay procedure method A (hGIPR assay) in the absence of HSA.
Activation of the human GIP receptor leads to increased intra-cellular concentrations of cyclic AMP (cAMP) and the consequent transcription activation from promoters containing multiple copies of the cAMP response element (CRE). It is thus possible to measure GIP receptor activity using a CRE-luciferase reporter gene introduced into Baby Hamster Kidney (BHK) cells co-expressing the human GIP receptor.
Cells at about 80-90% confluency were washed once with PBS (Gibco 14190-094) and detached from the cell flasks with Versene (Gibco, 15040-066). After centrifugation, the cells were counted, resuspended and diluted to approximately 1.5-3.0×10^6 (1.5E+6 to 3.0E+6) cells/mL in Recovery Cell Culture Freezing Medium (Gibco, 12648-010) and stored at −180° C. in suitable aliquots until use.
as §2
On the day before the assay hGIPR BHK Cre-Luc cells were thawed and plated out in 96 well Culture Plates (PerkinElmer/Revvity, 6005680) at 5.0×10^3 (5.0E+3) cells/well in growth medium as described above. The plates were then incubated for 21-23 hours at 37° C. with 5% CO2. On the day of the assay GLP-1-/GIP-/amylin-receptor tri-agonists or reference compounds were diluted in assay buffer using a 7-point, 10-fold titration plus a blank (absence of compound). Each compound was diluted and tested in duplicates in each experiment. In the plates containing the cells the growth medium was removed, and cells were washed twice with 100 μL PBS (Gibco 14190-094). 50 μL of the test compound dilutions were added to the plates containing cells preceded by 50 μL assay buffer with or without 2% (w/v) HSA (Sigma, A9511). The cell plates were incubated for 3 hours in a 5% CO2 incubator at 37° C. The plates were then transferred to room temperature followed by addition of 100 μL steadylite Plus™ (PerkinElmer/Revvity, 6066759). The plates were sealed and shaken for 30 minutes at room temperature while protected from light. Finally, luminescence (as an indicator of receptor activation) was measured on a Mithras reader (Berthold Technologies, DE). The EC50-values [pM] were calculated by non-linear curve fitting applying a four-parameter logistic model (Hill slope=“shared value for all datasets”) using GraphPad Prism (GraphPad Software, Boston, MA, USA).

[3] = target: T3, human amylin receptor (hAMYR3) (Homo sapiens, UniProt O60896+P30988); assay: Amylin receptor assay, method A (CRE-luciferase reporter, BHK cells)
T3 construct: host or cells: BHK cells (Hollex-1 line expressing hCTR(a) and CRE-Luc), further transfected with human RAMP3
Procedure: as §1
It is thus possible to measure hAMYR3 activity using a CRE-luciferase reporter gene introduced into Baby Hamster Kidney (BHK) cells co-expressing the hAMYR3.
The cell line was further transfected with human receptor modifying protein 3 (RAMP3) using standard methods.
After centrifugation, the cell pellet was resuspended and diluted to approximately 2.5-4.0×10^6 (2.5E+6 to 4.0E+6) cells/mL in Recovery™ Cell Culture Freezing Medium (Gibco, 12648-010). Cells were aliquoted and stored at −180° C. until use.
as §2, with “15630-056) and” for “15630-056),”, “either with or without” for “and”, “24040-032) and” for “24040-032)”, “with” for “with HSA”
The plate was incubated over night at 37° C. in 5% CO2. […] Luminescence was detected on a luminescence plate reader e.g., a Synergy 2 (BioTek).

[4] = hGLP-1R Potency, no HSA, EC50, method A, absence of HSA
[5] = hGIPR Potency, no HSA, EC50, method A, absence of HSA
[6] = hAMYR3 Potency, no HSA, EC50, method A, absence of HSA
[7] = hGLP-1R Potency, 1% HSA, EC50, method A, in the presence of 1% HSA
[8] = method A, absence of HSA, read-out: hGLP-1R Potency, no HSA, EC50
[9] = hGIPR Potency, 1% HSA, EC50, method A, in the presence of 1% HSA
[10] = method A, absence of HSA, read-out: hGIPR Potency, no HSA, EC50
[11] = hAMYR3 Potency, 1% HSA, EC50, method A, in the presence of 1% HSA
[12] = method A, absence of HSA, read-out: hAMYR3 Potency, no HSA, EC50

T1 sequence (P43220 24-463): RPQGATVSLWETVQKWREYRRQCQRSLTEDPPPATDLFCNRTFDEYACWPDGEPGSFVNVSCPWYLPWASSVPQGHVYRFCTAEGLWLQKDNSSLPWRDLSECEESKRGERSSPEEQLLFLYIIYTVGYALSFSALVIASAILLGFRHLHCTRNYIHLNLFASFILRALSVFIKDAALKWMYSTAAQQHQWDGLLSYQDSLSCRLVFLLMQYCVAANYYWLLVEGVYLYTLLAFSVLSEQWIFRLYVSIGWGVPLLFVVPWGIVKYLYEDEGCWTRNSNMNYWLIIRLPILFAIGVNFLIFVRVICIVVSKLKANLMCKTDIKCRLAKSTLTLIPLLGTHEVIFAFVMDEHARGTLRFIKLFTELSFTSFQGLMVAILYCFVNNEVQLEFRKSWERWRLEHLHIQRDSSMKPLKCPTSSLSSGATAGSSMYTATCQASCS
T3 sequence (P30988 25-474): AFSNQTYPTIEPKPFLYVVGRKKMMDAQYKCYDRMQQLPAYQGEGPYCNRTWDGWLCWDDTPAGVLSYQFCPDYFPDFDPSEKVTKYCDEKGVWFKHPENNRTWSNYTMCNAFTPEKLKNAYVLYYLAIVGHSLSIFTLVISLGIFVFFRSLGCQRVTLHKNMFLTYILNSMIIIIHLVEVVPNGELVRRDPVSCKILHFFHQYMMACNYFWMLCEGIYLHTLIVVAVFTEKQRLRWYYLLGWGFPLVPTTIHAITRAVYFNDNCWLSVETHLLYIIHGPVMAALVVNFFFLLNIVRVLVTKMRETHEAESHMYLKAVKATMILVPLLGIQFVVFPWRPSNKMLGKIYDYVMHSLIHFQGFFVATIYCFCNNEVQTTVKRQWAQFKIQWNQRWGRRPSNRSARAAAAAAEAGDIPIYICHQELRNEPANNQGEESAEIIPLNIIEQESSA
T3 sequence (O60896 24-148): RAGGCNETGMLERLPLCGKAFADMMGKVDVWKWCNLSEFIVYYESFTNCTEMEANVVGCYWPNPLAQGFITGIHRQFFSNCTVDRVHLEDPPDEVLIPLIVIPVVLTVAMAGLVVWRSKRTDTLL

| Substance | EC50 [1, 4] [nM] | EC50 [2, 5] [nM] | EC50 [3, 6] [nM] | EC50 [1, 7] [nM] | EC50 [1, 8] [nM] | EC50 [2, 9] [nM] | EC50 [2, 10] [nM] | EC50 [3, 11] [nM] | EC50 [3, 12] [nM] |
| --- | --- | --- | --- | --- | --- | --- | --- | --- | --- |
| Y[Aib]EGTFTSDYSILLEEQAAREFIEWLLAGGPSK([γGlu-C20 diacid])GAPPPSGGGEASELSTAALGRLSAELHRLADLPRTETGSGSP-NH2 [Compound 41] | 0.0408 | 0.00502 | 0.00672 | – | – | – | – | – | – |
| Y[Aib]EGTFTSDYSILLEEQAAREFIEWLLAGGPSRGAPPPSGGGEASHLSTQTQGRLSAELHK([AEEA-AEEA-γGlu-C18 diacid])LATLPRTETGSGSP-NH2 [Compound 72] | – | – | – | 0.0417 | 0.0131 | 0.00979 | 0.00212 | 0.589 | 0.00657 |
| Y[Aib]EGTFTSDYSILLEEQAAREFIEWLLAGGPSRGEASELSTAALGRLSAELHK([AEEA-AEEA-γGlu-C18 diacid])LATLPRTETGSGSP-NH2 [Compound 67] | – | – | – | 0.105 | 0.0154 | 0.037 | 0.00428 | 0.19 | 0.00366 |
| Y[Aib]EGTFTSDYSILLEEQAAREFIEWLLAGGPSRGEASHLSTAQTQRLSAELHK([AEEA-AEEA-γGlu-C20 diacid])LATLPRTETGSGSP-NH2 [Compound 94] | – | – | – | 0.13 | 0.0161 | 0.0295 | 0.0029 | 0.377 | 0.00391 |
| Y[Aib]EGTFTSDYSILLEEQAAREFIEWLLAGGPSSGAGQAPGQAPGASHLSTAALARLSAELHK([AEEA-AEEA-γGlu-C18 diacid])LATLPRTETGSGSP-NH2 [Compound 114] | – | – | – | 0.126 | 0.0433 | 0.0172 | 0.00429 | 0.0452 | 0.00227 |
| Y[Aib]EGTFTSDYSILLEEQAAREFIEWLLAGGPSSGAGQAPGQAPGASHLSTAQTARLSAELHK([AEEA-AEEA-γGlu-C18 diacid])LATLPRTETGSGSP-NH2 [Compound 113] | – | – | – | 0.0575 | 0.0144 | 0.00896 | 0.00202 | 0.136 | 0.00253 |
| Y[Aib]EGTFTSDYSILLEEQAAREFIEWLLAGGPSSGAGQAPGQAPGASHLSTAQTQRLSAELHQLK([AEEA-AEEA-γGlu-C18 diacid])TLPRTETGSGSP-NH2 [Compound 102] | – | – | – | 0.047 | 0.011 | 0.0122 | 0.00224 | 0.134 | 0.00326 |
| Y[Aib]EGTFTSDYSILLEEQAAREFIEWLLAGGPSSGAGQAPGQAPGASHLSTAQTQRLSAELHRLATLPK([AEEA-AEEA-γGlu-C20 diacid])TETGSGSP-NH2 [Compound 76] | – | – | – | 0.0636 | 0.0199 | 0.0111 | 0.00282 | 0.43 | 0.00311 |
| Y[Aib]EGTFTSDYSILLEEQAAREFIEWLLAGGPSSGAGQAPGQAPGASHLSTAQTQRLSAELHRLK([AEEA-AEEA-AEEA-γGlu-C18 diacid])TLPRTETGSGSP-NH2 [Compound 111] | – | – | – | 0.0348 | 0.0159 | 0.0122 | 0.00366 | 0.0664 | 0.00333 |
| Y[Aib]EGTFTSDYSILLEEQAAREFIEWLLAGGPSSGAGQAPGQAPGASK([AEEA-AEEA-γGlu-C18 diacid])LSTAQTQRLSAELHRLATLPRTETGSGSP-NH2 [Compound 54] | 0.0288 | 0.00556 | 0.00302 | – | – | – | – | – | – |
| Y[Aib]EGTFTSDYSILLEEQAAREFIEWLLAGGPSSGAGQAPGQAPLASHLSTAQTARLSAELHK([AEEA-AEEA-γGlu-C18 diacid])LATLPRTETGSGSP-NH2 [Compound 98] | – | – | – | 0.0431 | 0.0133 | 0.0112 | 0.00258 | 0.108 | 0.0023 |
| Y[Aib]EGTFTSDYSILLEEQAAREFIEWLLAGGPSSGALAQTLAQTLASHLSTAQTQRLSAELHK([AEEA-AEEA-γGlu-C16 diacid])LATLPRTETGSGSP-NH2 [Compound 59] | – | – | – | 0.0397 | 0.0506 | 0.0272 | 0.00772 | 0.0242 | 0.00385 |
| Y[Aib]EGTFTSDYSILLEEQAAREFIEWLLAGGPSSGALAQTLAQTLASHLSTAQTQRLSAELHK([AEEA-AEEA-γGlu-C18 diacid])LATLPRTETGSGSP-NH2 [Compound 48] | – | – | – | 0.105 | 0.0648 | 0.054 | 0.00702 | 0.0785 | 0.0032 |
| Y[Aib]EGTFTSDYSILLEEQAAREFIEWLLAGGPSSGALAQTLAQTLASHLSTAQTQRLSAELHK([AEEA-AEEA-γGlu-C20 diacid])LATLPRTETGSGSP-NH2 [Compound 60] | – | – | – | 0.173 | 0.0944 | 0.0283 | 0.00606 | 0.191 | 0.00385 |
| Y[Aib]EGTFTSDYSILLEEQAAREFIEWLLAGGPSSGALQAPGQAPLASHLSTAQTARLSAELHK([AEEA-AEEA-γGlu-C18 diacid])LATLPRTETGSGSP-NH2 [Compound 105] | – | – | – | 0.0489 | 0.0126 | 0.0125 | 0.00308 | 0.113 | 0.00288 |

From patent US20260174875A1 (Novo Nordisk A/S, priority 2023, published 2026)
